Reference: patent US8299097B2, “Methods for treating inflammatory disorders” (The Brigham and Women's Hospital, Inc., priority 2008, dated 2012)

Assays:
human blood platelets = assay: Platelet activation, cytofluorographic detection of P-selectin (CD62P); type: cell-based; settings: ADP 100 μM or LTE4 1 μM, 10 min
Experimental: (§1) FIG. 6. […] Each antibody (Ab) was diluted in 50 μl of sterile saline. […] 6A. PAS stains of the lungs of representative mice treated with isotype control (top) or with an anti-CD42 platelet-depleting antibody (bottom). 6B. Inflammation (top) and goblet cell metaplasia (bottom) in the lungs of mice treated with the indicated LT and antibody. A cohort of mice was treated with clopidogrel as indicated. Results in 6B are from a single experiment with 5 mice per group. […] 6C. […] Results are from a single experiment performed three times on different donors.
(§2) Platelets accumulate in the lungs of asthmatic individuals (Jeffery, P. K., et al. 1989. Am. Rev. Respir. Dis. 140:1745-1753), and are also recruited to the lungs of ovalbumin sensitized and challenged mice by an IgE-dependent mechanism (Pitchford, S. C., et al. 2008. Am. J. Respir. Crit. Care Med. 177:604-612).

[1] = test system: CHO cells expressing CysLT1R, CysLT2R, or P2Y12 receptors; assay: Calcium flux in Fura-2-AM-loaded CHO transfectants; type: cell-based, human; settings: LTE4 500 nM, ADP 100 μM; ADP response reflects endogenous P2Y receptors
human P2Y12 = human P2Y12 (Homo sapiens, UniProt Q9H244); assay: Binding of cys-LTs to membranes of CHO cells stably expressing the human P2Y12 receptor; set-up: polyhistidine (HIS) tag (C); expressed in transfected cells
Chain of human P2Y12 (Q9H244 whole entry): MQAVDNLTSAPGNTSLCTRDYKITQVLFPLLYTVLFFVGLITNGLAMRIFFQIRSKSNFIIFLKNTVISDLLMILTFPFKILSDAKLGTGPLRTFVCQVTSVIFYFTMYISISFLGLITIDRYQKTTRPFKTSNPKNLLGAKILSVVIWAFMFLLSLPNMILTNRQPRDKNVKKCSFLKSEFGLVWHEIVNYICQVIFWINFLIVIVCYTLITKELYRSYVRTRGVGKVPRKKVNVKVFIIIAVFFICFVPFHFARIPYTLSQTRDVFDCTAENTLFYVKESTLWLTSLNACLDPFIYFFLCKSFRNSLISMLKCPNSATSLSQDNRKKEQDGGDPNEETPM
Excerpt: A P2Y12 receptor cDNA was amplified by reverse transcriptase polymerase chain reaction (RT-PCR) from RNA extracted from primary hMCs and cloned into a mammalian expression vector. Expression was confirmed by detection of a histidine (HIS) tag by flow cytometry. Another cohort of CHO cells were stably transfected with a P2Y12 receptor construct in reverse orientation as a negative control. […] The cys-LT-induced ERK activation blocked by pre-treatment of the cells with pertussis toxin (PTX), was attenuated by treatment with the P2Y12 receptor-selective antagonist 2-methylthioadenosine monophosphate (2-MesAMP) (FIG. 1C), and was resistant to MK571, an inhibitor that blocks CysLT1R and some P2Y receptors (Mamedova, L., et al. 2005. Biochem. Pharmacol. 71:115-125). […] These responses were resistant to PTX and 2-MesAMP, and susceptible to MK571 in the case of the CysLT1R transfectants.
A human P2Y12 receptor cDNA was amplified by 30 cycles of PCR from reverse-transcribed total RNA extracted from primary cord blood hMCs. The primer sequences were 5′-[…] (SEQ ID NO: 1) and 3′-[…] (SEQ ID NO: 2). The fragment was cloned into a TA vector (INVITROGEN™). After verifying the nucleotide sequence, the fragment was subcloned into the multiple cloning site of the expression vector pEF1/His B, encoding a C-terminal polyhistidine (HIS) tag. A plasmid expressing the P2Y12 receptor construct in the forward orientation were transfected into CHO cells using Fugene HD reagent according to manufacturer's protocol. A construct in the reverse sequence was transfected in parallel as a negative control. […]
[^3H] […] Protein concentration was determined using Biorad Protein Assay Kit. […] The residual membrane-associated [^3H] on the filter was determined in 2 ml scintillation fluid by beta counter (Perkin Elmer). For [^3H]ADP, specific binding was determined by subtracting the amount of [^3H] bound in the presence of 100 μM 2-MesADP from total binding.

P2Y12 receptors [2] = target: T1, P2Y12 receptors (Mus musculus, UniProt Q9CPV9); assay: Clopidogrel effect on LTE4-mediated amplification of OVA-induced pulmonary inflammation; type: in vivo; set-up: from tissue; host or cells: whole animal: BALB/c (OVA model) and C57BL/6 (Der f model) mice
T1 sequence (Q9CPV9 whole entry): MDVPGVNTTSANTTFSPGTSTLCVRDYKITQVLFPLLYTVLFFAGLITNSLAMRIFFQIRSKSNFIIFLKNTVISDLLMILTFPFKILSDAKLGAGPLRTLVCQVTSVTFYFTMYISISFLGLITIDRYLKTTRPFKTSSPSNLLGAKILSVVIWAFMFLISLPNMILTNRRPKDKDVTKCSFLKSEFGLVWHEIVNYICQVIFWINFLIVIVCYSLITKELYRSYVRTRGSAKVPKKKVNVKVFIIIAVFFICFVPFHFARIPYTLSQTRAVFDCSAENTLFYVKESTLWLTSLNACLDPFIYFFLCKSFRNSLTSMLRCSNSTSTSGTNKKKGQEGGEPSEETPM
Experimental: FIG. 4. […] 4A. […] Clopidogrel (500 μg/ml) was added to the drinking water of the indicated groups of mice for 72 h before the first intranasal dose of LTs, and was maintained throughout the treatment. Results are mean±SEM from at least 9 mice in each group. The experiments were repeated three times with similar results. 4B. PAS stains (left column) from representative mice in the indicated groups showing the effect of clopidigrel on goblet cell metaplasia. Higher magnification images of H & E stains (right) from the same animals showing cellular characteristics of the bronchovascular infiltrates. 4C. Effect of clopidogrel administration on the steady-state expression of IL-13 and MUC5AC mRNA as determined by real-time PCR of whole lung RNA extracted 24 h after the last OVA challenge of the indicated groups. Data are mean±SEM from 4-5 mice/group from a single experiment. Results in a second experiment were similar 4D-4F. […] 4D. Total cell numbers (top), percentages of eosinophils (middle), and total numbers of eosinophils in BAL fluid recovered 24 h after the last challenge with OVA. 4E. Goblet cell metaplasia (top) and representative PAS stains (bottom) from wild-type and p2ry12^−/− mice subjected to the same protocol. 4E. Inflammation scores from the same mice. Data in 4D-4F are from 4 mice per group. Results in a second experiment were similar 4G. BALB/c Cysltr1/Cysltr2^−/− mice and age-matched WT controls were subjected to the same protocol as the p2ry12^−/− mice. Total cell numbers (top), percentages of eosinophils (middle), and total numbers of eosinophils in BAL fluid recovered 24 h after the last challenge with OVA. Results are from 6 mice per group. Three experiments were performed with similar results. 4H. Goblet cell numbers (top) and representative PAS stains (bottom). 4I. Quantitative assessment of bronchovascular inflammation as determined by H & E stains. Results are from 6 mice/group.
FIG. 5. Effect of clopidogrel on LTE4-mediated amplification of pulmonary inflammation. 5A. […] The indicated mice were treated with clopidogrel for 72 h before the first dose of leukotriene. Results are mean±SEM from a minimum of 9 mice in each group. 5B. PAS stains (left column) from representative mice in the indicated groups showing the effect of clopidigrel on goblet cell metaplasia. Higher magnification images of H & E stains (right) from the same animals showing cellular characteristics of the bronchovascular infiltrates. 5C. Effect of clopidogrel administration on the steady-state expression of IL-13 and MUC5AC mRNA as determined by real-time PCR of whole lung RNA extracted 24 h after the last OVA challenge of the indicated groups. Data are mean±SEM from 4-5 mice/group. […]

P2Y12 receptors [3] = target: T1, P2Y12 receptors; settings: both antigen doses (3 and 10 μg Der f)
Experimental: Role of P2Y12 receptors in inflammation mediated by dust mite allergen. C57BL/6 mice were treated intranasally with the indicated dose of Dermatophagoides farinae (Der f) extract twice weekly for 3 weeks. Animals were euthanized 24 h after the last dose. […] Effect of clopidogrel treatment on bronchovascular inflammation and goblet cell metaplasia in C57BL/6 mice subjected to intranasal challenge with the indicated doses of an extract from the house dust mite. Results are the mean±SEM from 5 mice/group. The experiment was repeated three times with similar results.
To determine whether pharmacologic blockade of P2Y12 receptors altered pulmonary inflammatory responses in a more physiologic model of pulmonary inflammation, C57BL/6 mice were administered an extract of house dust mite Dermatophagoides farinea (Der f) intranasally twice weekly for three weeks, with or without clopidogrel treatment. Two different doses of Der f were used to elicit moderate (at 3 μg) and severe (at 10 μg) inflammation, respectively.
For Der f-mediated pulmonary inflammation, 6-8 week old C57BL/6 mice were lightly anaesthetized and received either 3 or 10 μg of Der f extract (Greer Labs) on days 0, 3, 7, 10, 14 and 17. Some mice received clopidogrel throughout the duration of the experiment. Mice were euthanized 24 h after the last intranasal instillation.
2.5 μm thick glycolmethacrylate sections were stained with H&E for general morphologic examination. […] The extent of cellular infiltration in the bronchovascular bundles was evaluated without knowledge of the particular treatment and was categorized arbitrarily as grade 0=no inflammation, grade 1=mild inflammation, grade 2=moderate inflammation, grade 3=severe inflammation. 15 bronchovascular bundles of each mouse were evaluated. […] The length of basal lamina of corresponding bronchus was measured by Image J (NIH image analysis software). […] The data were expressed as the average of goblet cell counts stained in each bronchus in each section per mm bronchial basal lamina.

mouse CD42b (GPIbα) = assay: Platelet depletion in sensitized mice given LTE4 and low-dose OVA; settings: in vivo
Experimental: as §1, §2

P2Y receptor signaling = settings: mouse, in vivo; cited from earlier work
5-LO = target: T2, 5-LO (Homo sapiens, UniProt P09917); settings: cited from earlier work
T2 sequence (P09917 1-674): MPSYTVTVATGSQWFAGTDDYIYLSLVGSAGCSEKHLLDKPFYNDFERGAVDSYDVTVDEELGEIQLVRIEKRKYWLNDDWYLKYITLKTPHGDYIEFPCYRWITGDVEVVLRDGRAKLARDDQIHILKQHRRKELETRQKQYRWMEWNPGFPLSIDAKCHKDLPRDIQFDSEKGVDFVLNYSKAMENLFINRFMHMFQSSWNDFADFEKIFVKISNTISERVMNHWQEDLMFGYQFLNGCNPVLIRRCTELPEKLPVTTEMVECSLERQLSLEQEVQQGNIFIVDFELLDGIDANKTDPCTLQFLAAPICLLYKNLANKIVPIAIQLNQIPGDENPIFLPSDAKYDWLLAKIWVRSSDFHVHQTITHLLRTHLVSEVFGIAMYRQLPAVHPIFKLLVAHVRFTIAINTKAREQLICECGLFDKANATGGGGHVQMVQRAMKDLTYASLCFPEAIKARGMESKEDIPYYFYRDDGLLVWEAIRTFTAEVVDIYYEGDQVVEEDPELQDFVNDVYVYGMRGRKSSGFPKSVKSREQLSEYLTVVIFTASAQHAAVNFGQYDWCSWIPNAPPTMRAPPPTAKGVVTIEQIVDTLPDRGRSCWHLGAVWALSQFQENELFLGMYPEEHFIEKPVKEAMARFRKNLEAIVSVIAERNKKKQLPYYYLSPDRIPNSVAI

[4] = clopidogrel 500 μg/ml in drinking water

In the case of `Nc1ncnc2c1ncn2[C@@H]1O[C@H](COP(=O)(O)OP(=O)(O)O)[C@@H](O)[C@H]1O` [ADP, adenosine diphosphate], the “CD62P expression by platelets” value (human blood platelets) is reported as “elicited CD62P expression” and the calcium flux [1] is reported as “did exhibit a response”.
With `CCCCC/C=C\C\C=C/C=C/C=C/[C@@H](SC[C@H](NC(=O)CC[C@H](N)C(=O)O)C(=O)NCC(=O)O)[C@@H](O)CCCC(=O)O` [LTC4] the “binding to membranes of the transfectants” value (human P2Y12) was “also bound”.
In the case of `COC(=O)C(c1ccccc1Cl)N1CCc2sccc2C1` (stereo not drawn) [clopidogrel, methyl alpha-5 (4,5,6,7-tetrahydro (3,2-c)thienopyridyl)(2-chlorophenyl)-acetate], the “LTE4-induced potentiation of goblet cell metaplasia” value (P2Y12 receptors [2]; [4]) is reported as “complete lack of LTE4-induced potentiation”, the “LTE4-induced potentiation of inflammation” value (P2Y12 receptors [2]; [4]) is reported as “complete lack of LTE4-induced potentiation” and the “lung expression of IL-13 and MUC5AC mRNA (real-time PCR)” value (P2Y12 receptors [2]; whole lung RNA 24 h after last OVA challenge) is reported as “substantially suppressed the expression of both”. The “attenuation of BAL fluid eosinophilia” value (P2Y12 receptors [3]) was roughly 75%, the goblet cell metaplasia (P2Y12 receptors [3]) was “significant reductions” and the pulmonary inflammation (P2Y12 receptors [3]) was “significant reductions”. For the same compound, the “LTE4-mediated expression of mRNA encoding IL-13 and MUC5AC” value (mouse CD42b (GPIbα)) was “sharply reduced” and the “combination of platelet depletion with clopidogrel” value (mouse CD42b (GPIbα)) was “not additive”.
In the case of `Cc1ccc(C(=O)Nc2ccc(S(=O)(=O)O)c3cc(S(=O)(=O)O)cc(S(=O)(=O)O)c23)cc1NC(=O)c1cccc(NC(=O)Nc2cccc(C(=O)Nc3cc(C(=O)Nc4ccc(S(=O)(=O)O)c5cc(S(=O)(=O)O)cc(S(=O)(=O)O)c45)ccc3C)c2)c1` [suramin], the “allergen-induced pulmonary inflammation and AHR” value (P2Y receptor signaling) is listed as “dramatically inhibited”.
For `CC(c1cc2ccccc2s1)N(O)C(N)=O` (stereo not shown) [zileuton], the “block of cys-LT generation in vivo” value (5-LO) is listed as roughly 50%.
